Measured values: BindingDB's records for doi:10.1016/j.bmcl.2018.05.027 (Bristol-Myers Squibb Research and Development, 2018)

Assays:
[1] = Inhibition of HIV-1 integrase strand transfer activity assessed as reduction in viral replication in presence of 10% fetal bovine serum
[2] = Inhibition of HIV-1 integrase strand transfer activity assessed as reduction in viral replication in presence of 10% fetal bovine serum and 15 mg/mL human serum albumin
[3] = Inhibition of HIV-1 integrase strand transfer activity assessed as reduction in viral replication in presence of 40% human serum

EC50 [1] [nM]	EC50 [2] [nM]	EC50 [3] [nM]	Compound
3	27		CN(C)S(=O)(=O)c1cc(F)ccc1CNC(=O)c1nc2n(c(=O)c1O)CCCC21CCCC1
2	19		O=C(NCc1ccc(F)cc1)c1nc2n(c(=O)c1O)CCCC21CCCC1
53	857		CC1(C)OCCn2c1nc(C(=O)NCc1ccc(F)cc1Cl)c(O)c2=O
1	90		Cc1cc(CNC(=O)c2nc3n(c(=O)c2O)CCOC3(C)C)ccc1F
21	557		Cc1cc(F)ccc1CNC(=O)c1nc2n(c(=O)c1O)CCOC2(C)C
2	84		CC1(C)OCCn2c1nc(C(=O)NCc1ccc(F)c(Cl)c1)c(O)c2=O
2	17	25	CC1(C)OCCn2c1nc(C(=O)NCc1ccc(F)cc1)c(O)c2=O
2	21		O=C(NCc1ccc(F)cc1N1CCCCS1(=O)=O)c1nc2n(c(=O)c1O)CCCC21CCCC1
3	14		O=C(NCc1ccc(F)cc1S(=O)(=O)N1CCOCC1)c1nc2n(c(=O)c1O)CCCC21CCCC1
1	8		CS(=O)(=O)c1cc(F)ccc1CNC(=O)c1nc2n(c(=O)c1O)CCCC21CCCC1
5	149		Cc1cc(CNC(=O)c2nc3n(c(=O)c2O)CCCC32CCCC2)ccc1F
2	7		CC1(C)OCCn2c1nc(C(=O)NCc1ccc(F)cc1N1CCCCS1(=O)=O)c(O)c2=O
3	12		CN(C)S(=O)(=O)c1c(CNC(=O)c2nc3n(c(=O)c2O)CCOC3(C)C)ccc(F)c1F
3	6		CC1(C)OCCn2c1nc(C(=O)NCc1ccc(F)cc1S(C)(=O)=O)c(O)c2=O
2	3		CNC(=O)c1cc(F)ccc1CNC(=O)c1nc2n(c(=O)c1O)CCOC2(C)C
2	19		CC1(C)OCCn2c1nc(C(=O)NCc1ccc(F)cc1N1CCOCC1)c(O)c2=O
